The subject of one experiment is B. cereus. It is filed as cell-based. The conditions noted are these: pH 7.2. The method, boiled down: (§1)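 Peptides were diluted in 10 mM phosphate buffer, pH 7.2 with 0.03% LB and incubated with bacteria (~5×10^6 CFU/ml) for 3 h at 37 °C in microtiter wells. LB was then added, growth continued overnight, and OD 600 nm was read. MIC is the lowest concentration with no growth; IC50 gives 50% growth versus medium.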

A further experiment relates to E. coli DH5a. The experiment is classed as cell-based. The settings on record: DH5a, pH 7.2. The essentials: as §1
In a further experiment the test system is Salmonella. It is filed as cell-based, S. typhimurium. The settings on record: pH 7.2. The essentials:
as §1

Square brackets hold non-standard residues; d marks the D form. Ends that are not written are not given here. Peptide text beside a SMILES is read from it. Bounds are passed on as bounds.

As to `CSCC[C@H](NC(=O)[C@H](Cc1ccccc1)NC(=O)[C@H](CCCNC(=N)N)NC(=O)[C@H](CCCNC(=N)N)NC(=O)[C@H](CO)NC(=O)[C@@H](NC(=O)[C@@H](CC(=O)O)NC(=O)[C@@H](CCCNC(=N)N)NC(=O)[C@H](Cc1c[nH]c2ccccc12)NC(=O)[C@H](CCCNC(=N)N)NC(=O)[C@H](CO)NC(=O)[C@H](CCCNC(=N)N)NC(=O)CN)C(C)C)C(=O)N[C@@H](CCCNC(=N)N)C(=O)N[C@@H](CCCNC(=N)N)C(=O)O` [Peptide G14.10, GRSRWrdVSRRFMRR] (H-GRSRW[dR][dD]VSRRFMRR-OH; N-terminus and C-terminus assumed), in the experiment on B. cereus, the “B. cereus MIC” value amounted to 2.8 µM and the IC50 turned out to be 1750 nM. In addition, in the experiment with E. coli DH5a, the “E. coli DH5a MIC” value amounted to 1.25 µM and the IC50 turned out to be 450 nM. Also, in the experiment with Salmonella, the IC50 was determined as 890 nM and the “Salmonella MIC” value worked out at 1.4 µM.

In the case of RRVSRRFMRR [Peptide G11.3, RRVSRRFMRR], in the experiment with B. cereus, the “B. cereus MIC” value was over 10 µM and the IC50 stood at 7700 nM. For the same compound, in the experiment with E. coli DH5a, the “E. coli DH5a MIC” value worked out at 2.85 µM and the IC50 was determined as 1760 nM. Further, in the experiment on Salmonella, the IC50 is over 10000 nM and the “Salmonella MIC” value is over 10 µM.

For the compound “RRVSRRFMRRSRWARKGSGQMVQQSSQQFQ [Peptide G11.41]”, in the experiment on B. cereus, the “B. cereus MIC” value is 1.38 µM and the IC50 came out at 890 nM. Further, in the experiment on E. coli DH5a, the “E. coli DH5a MIC” value came to 3.5 µM and the IC50 was determined as 960 nM. In the experiment on Salmonella, the IC50 is 3250 nM and the “Salmonella MIC” value amounted to 5.6 µM.

Turning to “RDVCRNFMRR [Peptide G11, RDVCRNFMRR, reference compound]”, in the experiment with B. cereus, the “B. cereus MIC” value was over 10 µM and the IC50 is over 10000 nM. In the experiment with E. coli DH5a, the “E. coli DH5a MIC” value is over 10 µM and the IC50 is over 10000 nM. In the experiment with Salmonella, the IC50 is over 10000 nM and the “Salmonella MIC” value was over 10 µM.

For `CSCC[C@@H](NC(=O)[C@@H](Cc1ccccc1)NC(=O)[C@@H](CCCCN)NC(=O)[C@@H](CCCCN)NC(=O)[C@@H](CO)NC(=O)[C@H](NC(=O)[C@@H](CCCCN)NC(=O)[C@@H](CCCCN)NC(=O)[C@@H](CO)NC(=O)CNC(=O)[C@@H](CCCCN)NC(=O)[C@@H](CCCCN)NC(=O)[C@@H](CCSC)NC(=O)[C@@H](Cc1ccccc1)NC(=O)[C@@H](CCCCN)NC(=O)[C@@H](CCCCN)NC(=O)[C@@H](CO)NC(=O)[C@H](NC(=O)[C@@H](CCCCN)NC(=O)[C@@H](CCCCN)NC(=O)[C@@H](CO)NC(=O)CNC(=O)[C@@H](CCCCN)NC(=O)[C@@H](CCCCN)NC(=O)[C@@H](CCSC)NC(=O)[C@@H](Cc1ccccc1)NC(=O)[C@@H](CCCCN)NC(=O)[C@@H](CCCCN)NC(=O)[C@@H](CO)NC(=O)[C@H](NC(=O)[C@@H](CCCCN)NC(=O)[C@H](N)CCCCN)C(C)C)C(C)C)C(C)C)C(=O)N[C@H](CCCCN)C(=O)N[C@H](CCCCN)C(=O)O` [Peptide G11.55, kkvskkfmkkgskkvskkfmkkgskkvskkfmkk] (H-[dK][dK][dV][dS][dK][dK][dF][dM][dK][dK]G[dS][dK][dK][dV][dS][dK][dK][dF][dM][dK][dK]G[dS][dK][dK][dV][dS][dK][dK][dF][dM][dK][dK]-OH; N-terminus and C-terminus assumed), in the experiment on B. cereus, the “B. cereus MIC” value worked out at 0.2 µM and the IC50 worked out at 100 nM. For the same compound, in the experiment on E. coli DH5a, the “E. coli DH5a MIC” value stood at 4 µM and the IC50 stood at 980 nM. Further, in the experiment with Salmonella, the 50% inhibitory concentration (IC50) was over 10000 nM and the “Salmonella MIC” value is over 10 µM.

RRVVRRLLRR [Peptide G11.19, RRVVRRLLRR]: in the experiment with B. cereus, the “B. cereus MIC” value is 6.65 µM and half-maximal inhibition (IC50) required 3410 nM. Further, in the experiment on E. coli DH5a, the “E. coli DH5a MIC” value is over 10 µM and half-maximal inhibition (IC50) required 7450 nM. For the same compound, in the experiment with Salmonella, the IC50 amounted to 7690 nM and the “Salmonella MIC” value was over 10 µM.

RRVSRRFMRRYQSRVIQGLV [Peptide G12.6]: in the experiment with B. cereus, the “B. cereus MIC” value stood at 0.7 µM and the half-maximal inhibitory concentration (IC50) stood at 420 nM. In the experiment with E. coli DH5a, the “E. coli DH5a MIC” value came to 1.45 µM and the IC50 came out at 890 nM. Further, in the experiment on Salmonella, half-maximal inhibition (IC50) was put at 900 nM and the “Salmonella MIC” value is 1.45 µM.

For the compound “QRSVSRPPTRVSRPPRSRW [Peptide G13.13, QRSVSRPPTRVSRPPRSRW]”, in the experiment with B. cereus, the “B. cereus MIC” value was over 10 µM and the IC50 is over 10000 nM. For the same compound, in the experiment with E. coli DH5a, the “E. coli DH5a MIC” value is 5.1 µM and the IC50 turned out to be 380 nM. For the same compound, in the experiment on Salmonella, the IC50 stood at 1400 nM and the “Salmonella MIC” value is over 10 µM.

On to “GRARWRDVARRFMRR [Peptide G14.9, GRARWRDVARRFMRR]”, for which, in the experiment with B. cereus, the “B. cereus MIC” value was found to be 1.37 µM and the IC50 stood at 850 nM. Besides, in the experiment with E. coli DH5a, the “E. coli DH5a MIC” value came to 1.38 µM and it took 810 nM to reach half-maximal inhibition (IC50). In addition, in the experiment on Salmonella, the IC50 worked out at 440 nM and the “Salmonella MIC” value was found to be 0.65 µM.

For the compound “QRSVSRPPTRVSRTGRARW [Peptide G13.12, QRSVSRPPTRVSRTGRARW]”, in the experiment on B. cereus, the “B. cereus MIC” value is over 10 µM and the IC50 is over 10000 nM. For the same compound, in the experiment on E. coli DH5a, the “E. coli DH5a MIC” value was 5.65 µM and half-maximal inhibition (IC50) required 1750 nM. For the same compound, in the experiment on Salmonella, the IC50 is over 10000 nM and the “Salmonella MIC” value is over 10 µM.

`CC[C@H](C)[C@H](NC(=O)[C@@H](NC(=O)[C@@H](CCCNC(=N)N)NC(=O)[C@H](CO)NC(=O)[C@H](CCC(N)=O)NC(=O)[C@@H](CCCNC(=N)N)NC(=O)[C@@H](CCCNC(=N)N)NC(=O)[C@H](CCSC)NC(=O)[C@H](Cc1ccccc1)NC(=O)[C@@H](CCCNC(=N)N)NC(=O)[C@H](CCCNC(=N)N)NC(=O)[C@H](C)NC(=O)[C@H](NC(=O)[C@H](CC(=O)O)NC(=O)[C@@H](N)CCCNC(=N)N)C(C)C)C(C)C)C(=O)N[C@@H](CO)C(=O)N[C@H](CCCNC(=N)N)C(=O)N[C@@H](CC(C)C)C(=O)N[C@H](C(=O)O)C(C)C` [Peptide G12.16, RDvARrFMrrQSrVISrLV] (H-RD[dV]AR[dR]FM[dR][dR]QS[dR]VIS[dR]LV-OH; N-terminus and C-terminus assumed): in the experiment on B. cereus, the “B. cereus MIC” value was found to be 5.6 µM and 3510 nM corresponded to half-maximal inhibition (IC50). Besides, in the experiment on E. coli DH5a, the “E. coli DH5a MIC” value turned out to be 1.39 µM and the IC50 was 720 nM. Besides, in the experiment with Salmonella, the IC50 was 1000 nM and the “Salmonella MIC” value is 2.8 µM.

Regarding `CSCC[C@H](NC(=O)[C@H](Cc1ccccc1)NC(=O)[C@@H](CCCNC(=N)N)NC(=O)[C@@H](CCCNC(=N)N)NC(=O)[C@H](CO)NC(=O)[C@@H](NC(=O)[C@@H](CCCNC(=N)N)NC(=O)[C@@H](CCCNC(=N)N)NC(=O)[C@@H](CCCNC(=N)N)NC(=O)[C@@H](CCCNC(=N)N)NC(=O)[C@@H](CCCNC(=N)N)NC(=O)[C@@H](CCCNC(=N)N)NC(=O)[C@@H](CCCNC(=N)N)NC(=O)[C@H](CCC(N)=O)NC(=O)[C@H](CC(C)C)NC(=O)[C@H](CCCCN)NC(=O)[C@H](CO)NC(=O)[C@H](CO)NC(=O)[C@H](Cc1c[nH]cn1)NC(=O)[C@H](CC(=O)O)NC(=O)CNC(=O)CNC(=O)[C@H](CC(=O)O)NC(=O)CNC(=O)CNC(=O)[C@@H](N)CC(=O)O)C(C)C)C(=O)N[C@H](CCCNC(=N)N)C(=O)N[C@H](CCCNC(=N)N)C(=O)O` [Peptide G11.47, DGGDGGDHSSKLQrrrrrrrVSrrFMrr] (H-DGGDGGDHSSKLQ[dR][dR][dR][dR][dR][dR][dR]VS[dR][dR]FM[dR][dR]-OH; N-terminus and C-terminus assumed), in the experiment on B. cereus, the “B. cereus MIC” value turned out to be 0.32 µM and the midpoint of inhibition, the IC50, lay at 100 nM. Besides, in the experiment on E. coli DH5a, the “E. coli DH5a MIC” value turned out to be 0.18 µM and the IC50 was 100 nM. In the experiment with Salmonella, the IC50 came out at 150 nM and the “Salmonella MIC” value stood at 0.45 µM.

These data come from patent US7745390B2, “Antimicrobial peptides” (priority 2005, dated 2010).
